Source: PubChem BioAssay AID256 (DTP/NCI, 2004)
“And” between values parts separate entries of the source, which are not always exact repeats. Equal values may be shown once. Inconclusive results and toxic doses are left out. The calls were made as follows: active = survival T/C of 150% or more; inactive = T/C below 125% in these data.

Test system: CD2F1 mice, L1210 leukemia ip, survival T/C
Test: NCI In Vivo Anticancer Drug Screen. Data for tumor model L1210 Leukemia (intraperitoneal) in CD2F1 (CDF1) mice
Settings: endpoint: mean survival time, higher = longer survival
Summary of the method: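 Ratio T/C, where T is the treated-group value and C the vehicle-dosed control value, from mice implanted with a transplantable tumor.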

[1] = dose: 100.0 mg/kg/injection, schedule: Q04DX003 (ip), vehicle: saline with Tween-80
[2] = dose: 200.0 mg/kg/injection, schedule: Q04DX003 (ip), vehicle: saline with Tween-80
[3] = dose: 400.0 mg/kg/injection, schedule: Q04DX003 (ip), vehicle: saline with Tween-80
[4] = dose: 100.0 mg/kg/injection, schedule: Q04DX002 (ip), vehicle: saline with Tween-80
[5] = dose: 200.0 mg/kg/injection, schedule: Q04DX002 (ip), vehicle: saline with Tween-80
[6] = dose: 400.0 mg/kg/injection, schedule: Q04DX002 (ip), vehicle: saline with Tween-80
[7] = dose: 25.0 mg/kg/injection, schedule: Q04DX002 (ip), vehicle: saline with Tween-80
[8] = dose: 50.0 mg/kg/injection, schedule: Q04DX002 (ip), vehicle: saline with Tween-80
[9] = dose: 100.0 mg/kg/injection, schedule: Q01DX009 (ip), vehicle: saline with Tween-80
[10] = dose: 200.0 mg/kg/injection, schedule: Q01DX009 (ip), vehicle: saline with Tween-80
[11] = dose: 400.0 mg/kg/injection, schedule: Q01DX009 (ip), vehicle: saline with Tween-80
[12] = dose: 25.0 mg/kg/injection, schedule: Q01DX009 (ip), vehicle: saline with Tween-80
[13] = dose: 50.0 mg/kg/injection, schedule: Q01DX009 (ip), vehicle: saline with Tween-80
[14] = dose: 75.0 mg/kg/injection, schedule: Q04DX003 (ip), vehicle: saline
[15] = dose: 150.0 mg/kg/injection, schedule: Q04DX003 (ip), vehicle: saline
[16] = dose: 75.0 mg/kg/injection, schedule: Q01DX001 (ip), vehicle: saline
[17] = dose: 100.0 mg/kg/injection, schedule: Q04DX003 (ip), vehicle: saline
[18] = dose: 200.0 mg/kg/injection, schedule: Q04DX003 (ip), vehicle: saline
[19] = dose: 400.0 mg/kg/injection, schedule: Q04DX003 (ip), vehicle: saline

Measured: T/C

CC(C)C1CCC(C)C23CCC(=O)C2C13 (stereo unspecified)
inactive: dose: 100.0 mg/kg/injection, schedule: Q01DX001 (ip), vehicle: acetone 100 % of control | dose: 200.0 mg/kg/injection, schedule: Q01DX001 (ip), vehicle: acetone 95 % of control | dose: 400.0 mg/kg/injection, schedule: Q01DX001 (ip), vehicle: acetone 110 % of control

COCC(O)CN1CCN(c2ccccc2C)CC1 (stereo unspecified)
inactive: [1] 93 % of control

CCOC(=O)/C(=C/c1ccc(OCc2ccccc2)cc1)P(=O)(OCC)OCC
inactive: [1] 98 % of control | [2] 96 % of control | [3] 101 % of control

COCNC(=S)N/N=C/c1ccc(O)cn1
inactive: [4] 95 % of control | [5] 98 % of control | [6] 102 % of control

CCN=C(N)C(N)=NCC
inactive: [7] 100 % of control | [8] 96 % of control | [4] 100 % of control | [5] 100 % of control

O=[As](O)(CC(O)COc1ccc(Cl)cc1Cl)c1cccc(Cl)c1 (stereo unspecified)
inactive: dose: 6.25 mg/kg/injection, schedule: Q04DX003 (ip), vehicle: saline with Tween-80 98 % of control | dose: 12.5 mg/kg/injection, schedule: Q04DX003 (ip), vehicle: saline with Tween-80 110 % of control

O=C1CSC(=S)N1/N=C/c1ccc(Cl)c([N+](=O)[O-])c1
inactive: [9] 92 % of control | [1] 92 % of control | [10] 100 % of control | [2] 95 % of control | [11] 90 % of control | [3] 86 % of control

Clc1nc[nH]c1Cl
inactive: [12] 97 % of control | [13] 95 % of control | [9] 97 % of control | [1] 95 % of control

Cc1cc(O)c(O)c([N+](=O)[O-])c1
inactive: [9] 95 % of control | [10] 97 % of control | [11] 97 % of control

COCCNC1=C(C)C(=O)C2=C(C1=O)[C@H](COC(N)=O)[C@]1(OC)[C@@H]3N[C@@H]3CN21
inactive: dose: 3.0 mg/kg/injection, schedule: Q01DX001 (ip), vehicle: distilled water + Tween-80 114 % of control | dose: 24.0 mg/kg/injection, schedule: Q01DX001 (ip), vehicle: distilled water + Tween-80 123 % of control

CCc1ccc(CC)c(CC)c1CC
inactive: [13] 98 % of control | [9] 95 % of control | [1] 98 % of control | [10] 92 % of control | [2] 104 % of control

COC(=O)c1ccc(N2C(=O)C=CC2=O)cc1
inactive: dose: 1.5 mg/kg/injection, schedule: Q01DX009 (ip), vehicle: saline with Tween-80 108 % of control | dose: 3.0 mg/kg/injection, schedule: Q01DX009 (ip), vehicle: saline with Tween-80 108 % of control

CCOC(=O)c1c(C)[nH]oc1=O
inactive: [9] 96 % of control

O=C1C(=O)c2cccnc2C(NCc2ccccc2)=C1Cl
inactive: [14] 98 % of control | [15] 101 % of control | dose: 300.0 mg/kg/injection, schedule: Q04DX003 (ip), vehicle: saline 96 % of control

COc1ccc(NC(=O)Oc2ccc(Cl)cc2C)cc1
inactive: [4] 91 % of control | [5] 94 % of control | [6] 91 % of control

O=C1Nc2ccc([N+](=O)[O-])c3c([N+](=O)[O-])ccc1c23
inactive: [1] 98 % of control | [2] 97 % of control | [3] 102 % of control

O=C1CCCC[CH]1[Hg][Cl] (stereo unspecified)
inactive: dose: 1.25 mg/kg/injection, schedule: Q01DX009 (ip), vehicle: saline 95 % of control | dose: 2.5 mg/kg/injection, schedule: Q01DX009 (ip), vehicle: saline 107 % of control

CSc1ncnc2c1C[P+](Cc1ccccc1)(c1ccccc1)CC2 (stereo unspecified)
inactive: [7] 101 % of control | [8] 101 % of control | [4] 101 % of control

O.O.[Co].[Co].[NH-]CC[NH-].[NH-]CC[NH-].[NH-]CC[NH-].[NH-]CC[NH-]
inactive: dose: 25.0 mg/kg/injection, schedule: Q04DX002 (ip), vehicle: saline 98 % of control | dose: 50.0 mg/kg/injection, schedule: Q04DX002 (ip), vehicle: saline 106 % of control

CC(C)CC(Br)C(=O)NCC(=O)NC(Cc1ccccc1)C(=O)O (stereo unspecified)
inactive: [1] 106 % of control | [2] 97 % of control | [3] 96 % of control

COc1cc(C=Nc2ccc(-n3ccnc3C)cc2)ccc1N(CCCl)CCCl
inactive: dose: 2.5 mg/kg/injection, schedule: Q01DX009 (ip), vehicle: saline with Tween-80 98 % of control | dose: 5.0 mg/kg/injection, schedule: Q01DX009 (ip), vehicle: saline with Tween-80 113 % of control | dose: 10.0 mg/kg/injection, schedule: Q01DX009 (ip), vehicle: saline with Tween-80 112 % of control | dose: 20.0 mg/kg/injection, schedule: Q01DX009 (ip), vehicle: saline with Tween-80 117 % of control

C[n+]1ccc(/C(=N\O)c2ccccc2)cc1
inactive: dose: 37.5 mg/kg/injection, schedule: Q04DX003 (ip), vehicle: saline 100 % of control | [16] 101 % of control | [14] 100 % of control | dose: 150.0 mg/kg/injection, schedule: Q01DX001 (ip), vehicle: saline 97 % of control | [15] 95 % of control

CCOC(=O)C1(C(=O)OCC)CC2(COC(c3ccccc3)OC2)C1
inactive: [17] 97 % of control | [18] 97 % of control | [19] 95 % of control

Cc1occc1S(N)(=O)=O
inactive: dose: 75.0 mg/kg/injection, schedule: Q04DX002 (ip), vehicle: saline with Tween-80 120 % of control

CC(=O)OC1COC(n2nnc(C#N)c2C#N)C(OC(C)=O)C1OC(C)=O (stereo unspecified)
inactive: dose: 12.5 mg/kg/injection, schedule: Q01DX005 (ip), vehicle: distilled water + Tween-80 103 % of control and 98 % of control | dose: 25.0 mg/kg/injection, schedule: Q01DX005 (ip), vehicle: distilled water + Tween-80 97 % of control and 103 % of control | dose: 50.0 mg/kg/injection, schedule: Q01DX005 (ip), vehicle: distilled water + Tween-80 98 % of control and 101 % of control | dose: 100.0 mg/kg/injection, schedule: Q01DX005 (ip), vehicle: distilled water + Tween-80 104 % of control and 106 % of control | dose: 200.0 mg/kg/injection, schedule: Q01DX005 (ip), vehicle: distilled water + Tween-80 95 % of control

CN1CCCC(OC(=O)C(c2ccccc2)C2(O)CCCCC2)C1 (stereo unspecified)
inactive: [16] 101 % of control

CC#CC#CC(=O)c1ccccc1
inactive: dose: 5.0 mg/kg/injection, schedule: Q01DX001 (ip), vehicle: saline 97 % of control | dose: 10.0 mg/kg/injection, schedule: Q01DX001 (ip), vehicle: saline 100 % of control

Cc1csc2nc[nH]c(=O)c12
inactive: [9] 97 % of control | [10] 98 % of control | [11] 105 % of control

COc1ccc(N=NNc2ccc(OC)cc2)cc1
inactive: dose: 6.25 mg/kg/injection, schedule: Q01DX009 (ip), vehicle: saline with Tween-80 100 % of control | dose: 12.5 mg/kg/injection, schedule: Q01DX009 (ip), vehicle: saline with Tween-80 96 % of control | [12] 102 % of control

NCCC(=O)CN
inactive: dose: 100.0 mg/kg/injection, schedule: Q01DX009 (ip), vehicle: saline 110 % of control | [17] 100 % of control | dose: 200.0 mg/kg/injection, schedule: Q01DX009 (ip), vehicle: saline 101 % of control | [18] 107 % of control | dose: 400.0 mg/kg/injection, schedule: Q01DX009 (ip), vehicle: saline 91 % of control | [19] 98 % of control
